# Measurements as given in paper PMC5207512, “Inhibition of Helicobacter pylori and Its Associated Urease by Palmatine: Investigation on the Potential Mechanism” (PLoS ONE, 2017).
# Values joined by “and” are separate entries in the source; they are usually repeats but may differ in a detail not shown here. Identical values can stand only once.
# Biological target: T1, jack bean urease (JBU) (Canavalia ensiformis, UniProt P07374)
# T1 construct: Urease from jack bean (Canavalia ensiformis, JBU); purchased Sigma-Aldrich (St Louis, MO, USA) type III (catalogue number not given)
# T1 sequence (P07374 whole entry, looked up): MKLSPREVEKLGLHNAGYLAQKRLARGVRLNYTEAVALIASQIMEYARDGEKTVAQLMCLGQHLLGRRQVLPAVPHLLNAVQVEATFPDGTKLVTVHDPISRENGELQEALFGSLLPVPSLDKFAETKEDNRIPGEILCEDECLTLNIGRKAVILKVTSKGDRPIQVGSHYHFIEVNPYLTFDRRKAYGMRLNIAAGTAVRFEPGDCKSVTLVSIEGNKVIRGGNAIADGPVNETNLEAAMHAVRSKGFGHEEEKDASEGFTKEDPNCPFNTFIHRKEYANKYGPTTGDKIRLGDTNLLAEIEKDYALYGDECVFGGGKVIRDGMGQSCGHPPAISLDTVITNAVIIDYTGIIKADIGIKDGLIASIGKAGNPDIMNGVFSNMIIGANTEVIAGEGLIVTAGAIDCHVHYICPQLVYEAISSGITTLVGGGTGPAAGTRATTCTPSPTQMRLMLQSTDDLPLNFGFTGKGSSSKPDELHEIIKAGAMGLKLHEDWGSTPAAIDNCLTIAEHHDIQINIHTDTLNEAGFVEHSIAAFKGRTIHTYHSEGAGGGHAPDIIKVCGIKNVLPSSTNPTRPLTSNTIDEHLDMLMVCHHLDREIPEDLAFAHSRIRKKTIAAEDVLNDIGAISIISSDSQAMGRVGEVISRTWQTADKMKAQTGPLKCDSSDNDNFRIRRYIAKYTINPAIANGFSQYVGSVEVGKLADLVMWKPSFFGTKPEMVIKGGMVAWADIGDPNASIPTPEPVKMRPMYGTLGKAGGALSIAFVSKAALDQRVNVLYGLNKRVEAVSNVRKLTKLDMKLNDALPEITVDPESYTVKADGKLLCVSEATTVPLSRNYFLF
# Experiment: Inhibition kinetic study (Lineweaver-Burk plots)
# Type: biochemical
# Conditions: for Lineweaver-Burk plot raw value (reciprocal velocity): Fig 3B JBU
# Protocol: Michaelis constant KM and the maximum velocity vmax values were evaluated by means of Lineweaver—Burk plots, using the initial velocities at different urea concentrations (ranging from 0.3125 to 15 mM), in the absence or presence of 1.00, 0.50, and 0.25 mM Pal. The concentrations of HPU and JBU were both 0.25 mg/mL in the assays. The values were obtained by applying nonlinear regression to the Michaelis-Menten equation. All experiments were performed in triplicate.
smiles,measurement,setting,value
"COc1cc2c(cc1OC)-c1cc3ccc(OC)c(OC)c3c[n+]1CC2 [Pal, Palmatine]",Lineweaver-Burk plot raw value (reciprocal velocity),"Pal=0.25 mM, 1/urea 0.0333333",6.736 and 6.4288 and 6.3593
same,Lineweaver-Burk plot raw value (reciprocal velocity),"Pal=0.25 mM, 1/urea 0.0666667",9.843 and 8.358 and 8.117
same,Lineweaver-Burk plot raw value (reciprocal velocity),"Pal=0.25 mM, 1/urea 0.266667",12.8949 and 20.429 and 18.9394
same,Lineweaver-Burk plot raw value (reciprocal velocity),"Pal=0.25 mM, 1/urea 0.533333",27.5862 and 33.6135 and 34.6021
same,Lineweaver-Burk plot raw value (reciprocal velocity),"Pal=0.25 mM, 1/urea 1.06667",85.4701 and 51.1509 and 56.8182
same,Lineweaver-Burk plot raw value (reciprocal velocity),"Pal=0.50 mM, 1/urea 0.0333333",6.923 and 7.202 and 9.225
same,Lineweaver-Burk plot raw value (reciprocal velocity),"Pal=0.50 mM, 1/urea 0.0666667",8.807 and 9.298 and 11.1669
same,Lineweaver-Burk plot raw value (reciprocal velocity),"Pal=0.50 mM, 1/urea 0.133333",18.6916 and 14.9813 and 17.4672
same,Lineweaver-Burk plot raw value (reciprocal velocity),"Pal=0.50 mM, 1/urea 0.266667",37.037 and 24.1255 and 22.7273
same,Lineweaver-Burk plot raw value (reciprocal velocity),"Pal=0.50 mM, 1/urea 0.533333",57.971 and 34.3053 and 43.4783
same,Lineweaver-Burk plot raw value (reciprocal velocity),"Pal=1.00 mM, 1/urea 0.0333333",7.877 and 9.307 and 11.4613
same,Lineweaver-Burk plot raw value (reciprocal velocity),"Pal=1.00 mM, 1/urea 0.0666667",11.4679 and 16.2867 and 12.6662
same,Lineweaver-Burk plot raw value (reciprocal velocity),"Pal=1.00 mM, 1/urea 0.133333",16.1031 and 22.0507 and 21.7155
same,Lineweaver-Burk plot raw value (reciprocal velocity),"Pal=1.00 mM, 1/urea 0.266667",25.0313 and 34.7222 and 40.9836
same,Lineweaver-Burk plot raw value (reciprocal velocity),"Pal=1.00 mM, 1/urea 0.533333",40.4858 and 35.0263 and 56.6572
same,type of urease inhibition,"JBU, Lineweaver-Burk",noncompetitive
